# US20110105500A1, “PYRAZINE SUBSTITUTED PURINES” (S*BIO Pte Ltd., priority 2008, published 2011)
# Experiments:
# [1] = system: human breast cancer cell lines; conditions: cited from earlier work
# Full-length mTOR kinase = molecular target: T1, Full-length mTOR kinase (Homo sapiens, UniProt P42345); test: mTOR Assay (phosphorylation of 4eBP1, [γ33P]-ATP filter plate); type: biochemical; conditions: 10 μM ATP, 1 hour at room temperature
# T1 construct: Full-length mTOR kinase and His-tagged 4eBP1 were produced in-house; made in house
# Method: Full-length mTOR kinase and His-tagged 4eBP1 were produced in-house. [γ^33P]-ATP was purchased from Amersham (GE Healthcare). All chemicals, unless otherwise stated, were from Sigma-Aldrich.
# Phosphorylation assays were initially performed in a final volume of 20 μL in 384-well polypropylene plate (Greiner). Compounds were typically tested over the range from 100 μM to 0.006 μM, in 8 step dilutions, in duplicate. 10 μL/well of 2× Enzyme-Substrate solution (1.5 μg/mL mTOR, 40 μg/mL 4eBP1 in 1× assay buffer: 10 mM Hepes pH 7.5, 50 mM NaCl and 10 mM MnCl2) were first added to the sample plate containing 1 μL/well of test compound in neat DMSO. The reaction was initiated by adding 10 μL/well of 20 μM ATP solution (final assay concentration 10 μM ATP and 0.4 μCi/well of [γ^33P]-ATP). After 1 hour incubation at room temperature, the reaction was terminated with 40 μL/well of 20 mM EDTA/1 mM ATP solution.
# 50 μL/well of the stopped reaction mix was then transferred to 384-well MultiScreenHTS-PH filter plate (Millipore) pre-added with 50 μL/well of 1% phosphoric acid. The plate was washed 4 times with 120 μL/well of 0.5% phosphoric acid via vacuum filtration. Finally, 10 μL/well of Optiphase™ SuperMix liquid scintillation cocktail (Perkin Elmer) was added. After minimum 1 hour of incubation, counting was performed in a Wallac MicroBeta TriLux scintillation counter using coincidence counting mode with crosstalk correction. IC50 is defined as the concentration of compound required for 50% inhibition of kinase enzyme activity.
# [2] = molecular target: T2, Recombinant PI3K p110α/p85 (Homo sapiens, UniProt P42336); test: PI3K Assay ([γ33P]ATP, PtdIns/PtdSer coated plates); type: biochemical; conditions: p110α/p85, 2 μM ATP, 1 hour at RT; read-out: IC50 (PI3Kα)
# T2 construct: made in house
# Method: Recombinant PI3K p110α/p85 was prepared in-house. Phosphatidylinositol (PtdIns), phosphotidylserine (PtdSer) and all other unspecified chemicals were purchased from Sigma-Aldrich. [γ33P]ATP and Optiphase scintillant were obtained from Perkin Elmer.
# Assays were performed in a final assay volume of 25 μL in 384-well Maxisorp plates (Nunc). […] Maxisorp plates were coated with 20 μL/well of a 1:1 mixture of PtdIns and PtdSer [0.1 mg/mL each dissolved in chloroform:ethanol (3:7)] and left overnight in a fume hood at room temperature to dry.
# The enzyme reaction was created by pipetting 5 μL/well of compound (in 2.5% DMSO), 10 μL/well of enzyme (0.5 μg/mL p110α+1 μg/mL p85), and 10 μL/well of 5 μM ATP with 5 μCi/mL [γ^33P]ATP in assay buffer (final concentrations: 0.2 μg/mL p110α, 2 μM ATP, 0.05 μCi/well [γ^33P]ATP in 1× assay buffer: 100 mM Tris-HCl pH 7.0, 200 mM NaCl, 8 mM MgCl2). The reaction was incubated for 1 hour at RT and terminated with 30 μL/well of 50 mM EDTA solution. The plate was then washed twice with TBS, dried, and added with 30 μL/well of scintillant before it was counted in a MicroBeta Trilux.
# T2 sequence (P42336 whole entry): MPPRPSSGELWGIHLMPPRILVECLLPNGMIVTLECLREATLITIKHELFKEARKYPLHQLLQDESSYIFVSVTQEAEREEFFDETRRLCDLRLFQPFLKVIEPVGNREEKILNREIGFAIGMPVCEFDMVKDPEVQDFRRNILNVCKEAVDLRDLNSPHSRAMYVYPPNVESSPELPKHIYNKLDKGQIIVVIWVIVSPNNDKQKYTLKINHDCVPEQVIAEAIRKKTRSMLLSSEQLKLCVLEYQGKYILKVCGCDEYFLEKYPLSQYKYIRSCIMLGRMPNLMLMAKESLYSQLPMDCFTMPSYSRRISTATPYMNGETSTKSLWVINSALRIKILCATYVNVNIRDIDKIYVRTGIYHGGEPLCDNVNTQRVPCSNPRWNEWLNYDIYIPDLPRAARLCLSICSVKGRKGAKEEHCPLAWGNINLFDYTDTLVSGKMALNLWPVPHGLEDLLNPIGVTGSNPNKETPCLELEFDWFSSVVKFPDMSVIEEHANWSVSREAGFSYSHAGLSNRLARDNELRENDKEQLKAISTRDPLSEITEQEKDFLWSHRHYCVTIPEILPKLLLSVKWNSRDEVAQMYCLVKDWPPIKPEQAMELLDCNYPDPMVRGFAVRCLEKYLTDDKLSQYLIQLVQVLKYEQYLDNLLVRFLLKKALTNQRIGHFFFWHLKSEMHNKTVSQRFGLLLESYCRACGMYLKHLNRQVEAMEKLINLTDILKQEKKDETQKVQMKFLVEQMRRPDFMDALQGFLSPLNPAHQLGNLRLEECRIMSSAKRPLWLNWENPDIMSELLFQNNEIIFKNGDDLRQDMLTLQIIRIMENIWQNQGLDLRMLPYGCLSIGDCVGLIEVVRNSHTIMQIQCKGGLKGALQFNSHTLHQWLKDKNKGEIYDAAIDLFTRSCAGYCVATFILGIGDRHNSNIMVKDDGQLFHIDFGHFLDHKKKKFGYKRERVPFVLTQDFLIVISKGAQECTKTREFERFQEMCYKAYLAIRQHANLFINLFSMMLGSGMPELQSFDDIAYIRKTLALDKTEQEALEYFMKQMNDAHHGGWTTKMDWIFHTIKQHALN
# T2 sequence (P27986 whole entry partner): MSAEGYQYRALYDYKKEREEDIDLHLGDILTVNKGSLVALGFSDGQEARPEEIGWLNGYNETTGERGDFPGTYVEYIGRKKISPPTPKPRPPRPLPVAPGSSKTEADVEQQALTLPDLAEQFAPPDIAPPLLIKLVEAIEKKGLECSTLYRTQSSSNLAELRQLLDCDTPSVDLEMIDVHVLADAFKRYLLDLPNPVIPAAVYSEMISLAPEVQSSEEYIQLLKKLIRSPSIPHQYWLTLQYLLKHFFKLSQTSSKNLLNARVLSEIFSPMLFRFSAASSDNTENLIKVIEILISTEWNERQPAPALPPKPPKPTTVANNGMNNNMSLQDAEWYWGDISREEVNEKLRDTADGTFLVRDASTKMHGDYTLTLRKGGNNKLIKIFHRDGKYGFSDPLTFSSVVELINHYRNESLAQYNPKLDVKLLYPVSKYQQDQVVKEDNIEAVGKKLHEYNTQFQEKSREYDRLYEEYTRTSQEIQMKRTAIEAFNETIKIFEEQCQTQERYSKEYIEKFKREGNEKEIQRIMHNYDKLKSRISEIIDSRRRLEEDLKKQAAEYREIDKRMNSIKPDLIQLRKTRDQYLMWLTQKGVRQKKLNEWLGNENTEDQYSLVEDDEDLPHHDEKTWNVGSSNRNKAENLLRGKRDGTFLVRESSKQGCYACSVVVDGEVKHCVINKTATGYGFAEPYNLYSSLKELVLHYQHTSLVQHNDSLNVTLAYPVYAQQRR
SMILES,IC50 (Full-length mTOR kinase),IC50 [2],IC50 (sensitive lines) ([1]; six of eight human breast cancer cell lines),IC50 ([1]; two resistant lines of eight human breast cancer cell lines)
CO[C@H]1C[C@@H]2CC[C@@H](C)[C@@](O)(O2)C(=O)C(=O)N2CCCC[C@H]2C(=O)O[C@H]([C@H](C)C[C@@H]2CC[C@@H](OC(=O)C(C)(CO)CO)[C@H](OC)C2)CC(=O)[C@H](C)/C=C(\C)[C@@H](O)[C@@H](OC)C(=O)[C@H](C)C[C@H](C)/C=C/C=C/C=C/1C [CCI-779],,,low nanomolar range,> 1000 nM
Nc1cnc(-c2nc(N3CCOCC3)nc3c2ncn3Cc2ccccc2)cn1 [Compound 6],1000 to 5000 nM,< 1000 nM,,
Nc1cnc(-c2nc(N3CCOCC3)nc3c2ncn3C2CCc3ccccc3C2)cn1 (stereo not shown) [Compound 13],< 1000 nM,< 1000 nM,,
Nc1cnc(-c2nc(N3CCOCC3)nc3c2ncn3-c2ccc3c(c2)OCO3)cn1 [Compound 14],< 1000 nM,< 1000 nM,,
"CCC(C)n1c(Br)nc2c(-c3cnc(N)cn3)nc(N3CCOCC3)nc21 (stereo not shown) [Compound 15, 5-(8-Bromo-9-sec-butyl-2-morpholin-4-yl-9H-purin-6-yl)-pyrazin-2-ylamine]",< 1000 nM,< 1000 nM,,
Nc1cnc(-c2nc(N3CCOCC3)nc3c2ncn3C2CCN(c3ccccc3)CC2)cn1 [Compound 16],< 1000 nM,< 1000 nM,,
Nc1cnc(-c2nc(N3CCOCC3)nc3[nH]cnc23)cn1 [Compound 17],< 1000 nM,< 1000 nM,,
Nc1cnc(-c2nc(N3CCOCC3)nc3c2ncn3C2CCN(c3ccccc3)C2)cn1 (stereo not shown) [Compound 18],< 1000 nM,< 1000 nM,,
Nc1cnc(-c2nc(N3CCOCC3)nc3c2ncn3-c2ccccc2)cn1 [Compound 19],< 1000 nM,< 1000 nM,,
Nc1cnc(-c2nc(N3CCOCC3)nc3c2nc(Br)n3C2CCOC2)cn1 (stereo not shown) [Compound 20],< 1000 nM,< 1000 nM,,
Nc1cnc(-c2nc(N3CCOCC3)nc3c2ncn3C2Cc3ccccc3C2)cn1 [Compound 21],< 1000 nM,< 1000 nM,,
CC(C)(C)Cn1cnc2c(-c3cnc(N)cn3)nc(N3CCOCC3)nc21 [Compound 22],< 1000 nM,< 1000 nM,,
Nc1cnc(-c2nc(N3CCOCC3)nc3c2ncn3C2CCc3ccccc32)cn1 (stereo not shown) [Compound 23],< 1000 nM,< 1000 nM,,
Nc1cnc(-c2nc(N3CCOCC3)nc3c2ncn3C2CCC2)cn1 [Compound 24],< 1000 nM,< 1000 nM,,
CC1CCCCC1n1cnc2c(-c3cnc(N)cn3)nc(N3CCOCC3)nc21 (stereo not shown) [Compound 25],< 1000 nM,< 1000 nM,,

# More lines, main results first:
IC50 (Full-length mTOR kinase),IC50 [2],SMILES,IC50 (sensitive lines) ([1]; six of eight human breast cancer cell lines),IC50 ([1]; two resistant lines of eight human breast cancer cell lines)
< 1000 nM,< 1000 nM,"CCC(C)n1cnc2c(-c3cnc(N)cn3)nc(N3CCOCC3)nc21 (stereo not shown) [Compound 1, 5-(9-sec-Butyl-2-morpholin-4-yl-9H-purin-6-yl)-pyrazin-2-ylamine]",,
< 1000 nM,< 1000 nM,CC(C)C(C)n1cnc2c(-c3cnc(N)cn3)nc(N3CCOCC3)nc21 (stereo not shown) [Compound 2],,
< 1000 nM,< 1000 nM,CCC(C#N)n1cnc2c(-c3cnc(N)cn3)nc(N3CCOCC3)nc21 (stereo not shown) [Compound 3],,
< 1000 nM,< 1000 nM,CCC(CC)n1cnc2c(-c3cnc(N)cn3)nc(N3CCOCC3)nc21 [Compound 4],,
< 1000 nM,< 1000 nM,Nc1cnc(-c2nc(N3CCOCC3)nc3c2ncn3C2CCCC2)cn1 [Compound 5],,
< 1000 nM,< 1000 nM,"Nc1cnc(-c2nc(N3CCOCC3)nc3c2ncn3Cc2c(F)cccc2F)cn1 [Compound 7, 5-[9-(2,6-Difluoro-benzyl)-2-morpholin-4-yl-9H-purin-6-yl]-pyrazin-2-ylamine]",,
< 1000 nM,< 1000 nM,Nc1cnc(-c2nc(N3CCOCC3)nc3c2ncn3CC2CC2)cn1 [Compound 8],,
< 1000 nM,< 1000 nM,CC(C1CC1)n1cnc2c(-c3cnc(N)cn3)nc(N3CCOCC3)nc21 (stereo not shown) [Compound 9],,
< 1000 nM,< 1000 nM,COCC(C)n1cnc2c(-c3cnc(N)cn3)nc(N3CCOCC3)nc21 (stereo not shown) [Compound 10],,
< 1000 nM,< 1000 nM,"Cc1cccc(-n2cnc3c(-c4cnc(N)cn4)nc(N4CCOCC4)nc32)c1 [Compound 11, 5-(2-Morpholin-4-yl-9-m-tolyl-9H-purin-6-yl)-pyrazin-2-ylamine]",,
< 1000 nM,< 1000 nM,Nc1cnc(-c2nc(N3CCOCC3)nc3c2ncn3C2CCOC2)cn1 (stereo not shown) [Compound 12],,
